Key:
BTK enzyme = molecular target: T1, BTK enzyme (Homo sapiens, UniProt Q06187); experiment: In vitro BTK kinase assay: BTK-POLYGAT-LS assay; type: biochemical; details: ATP 10 μM, read-out: IC50 (10uMATP)
T1 construct: purchased Upstate 14-552
How it was run: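 Human BTK activity was measured with final 10 μM ATP and 100 nM polyGAT substrate in pH 7.5 Tris buffer with 10 mM MgCl2, DTT, Triton X-100 and casein.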

[1] = molecular target: BTK (phospho-BTK) in human whole blood (Homo sapiens, UniProt Q06187); experiment: In vitro PD assay in human whole blood (pBTK assay)
Sequence of BTK (phospho-BTK) in human whole blood (Q06187 whole entry): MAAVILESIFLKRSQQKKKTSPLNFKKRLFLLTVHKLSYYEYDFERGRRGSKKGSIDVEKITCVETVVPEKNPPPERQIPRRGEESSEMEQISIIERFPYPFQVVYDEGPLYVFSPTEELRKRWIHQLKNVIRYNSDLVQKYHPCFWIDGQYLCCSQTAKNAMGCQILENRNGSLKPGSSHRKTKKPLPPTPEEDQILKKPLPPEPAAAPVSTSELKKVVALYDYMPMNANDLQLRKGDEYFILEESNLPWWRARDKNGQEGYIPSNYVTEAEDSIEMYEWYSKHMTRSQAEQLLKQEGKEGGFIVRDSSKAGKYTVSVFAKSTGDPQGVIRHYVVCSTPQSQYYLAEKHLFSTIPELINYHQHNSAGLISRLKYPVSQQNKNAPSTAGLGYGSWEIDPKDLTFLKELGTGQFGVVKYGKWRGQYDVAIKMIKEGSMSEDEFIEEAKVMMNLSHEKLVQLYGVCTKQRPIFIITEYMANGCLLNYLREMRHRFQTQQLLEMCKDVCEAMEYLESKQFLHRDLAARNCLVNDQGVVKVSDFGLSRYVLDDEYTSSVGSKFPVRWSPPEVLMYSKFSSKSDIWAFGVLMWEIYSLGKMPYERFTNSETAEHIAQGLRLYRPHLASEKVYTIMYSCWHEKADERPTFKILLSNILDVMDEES

T1 sequence (Q06187 whole entry): as above

| Structure (SMILES) | IC50 (BTK enzyme) [nM] | IC50 [1] [nM] |
| --- | --- | --- |
| Cc1cc(-c2ccnc(Nc3cnn(C)c3)n2)ccc1CN1CCc2c(cnn2C(C)(C)C)C1=O [Example I-192, 1-(tert-butyl)-5-(2-methyl-4-(2-((1-methyl-1H-pyrazol-4-yl)amino)pyrimidin-4-yl)benzyl)-6,7-dihydro-1H-pyrazolo[4,3-c]pyridin-4(5H)-one] | < 10 | < 500 |
| Cc1cc(-c2cc(Nc3cc4n(n3)CCC4)ncn2)ccc1CNC(=O)c1cnn(C(C)(C)C)c1 [Example I-193, 1-(tert-butyl)-N-(4-(6-((5,6-dihydro-4H-pyrrolo[1,2-b]pyrazol-2-yl)amino)pyrimidin-4-yl)-2-methylbenzyl)-1H-pyrazole-4-carboxamide] | < 10 | < 500 |
| Cc1cc(-c2ccnc(Nc3cnn4c3CCC4)n2)ccc1CNC(=O)N1CCC(C(C)(C)C)C1 (stereo not shown) [Example I-194, 3-(tert-butyl)-N-(4-(2-((5,6-dihydro-4H-pyrrolo[1,2-b]pyrazol-3-yl)amino)pyrimidin-4-yl)-2-methylbenzyl)pyrrolidine-1-carboxamide] | < 10 | < 500 |
| Cc1cc(-c2ccnc(Nc3cnn(C4CCN(C)CC4)c3)n2)ccc1CNC(=O)c1cc(C(C)(C)C)on1 [Example I-196, 5-(tert-butyl)-N-(2-methyl-4-(2-((1-(1-methylpiperidin-4-yl)-1H-pyrazol-4-yl)amino)pyrimidin-4-yl)benzyl)isoxazole-3-carboxamide] | < 10 | < 500 |
| Cc1cc(-c2ccnc(Nc3cnn(C4CCN(C)CC4)c3)n2)ccc1CNC(=O)c1cnn(C(C)(C)C)c1 [Example I-197, 1-(tert-butyl)-N-(2-methyl-4-(2-((1-(1-methylpiperidin-4-yl)-1H-pyrazol-4-yl)amino)pyrimidin-4-yl)benzyl)-1H-pyrazole-4-carboxamide] | < 10 | < 500 |
| Cn1cc(Nc2nccc(-c3ccc(CNC(=O)N4CC(OC(C)(C)C)C4)c(C(F)(F)F)c3)n2)cn1 [Example I-198, 3-(tert-butoxy)-N-(4-(2-((1-methyl-1H-pyrazol-4-yl)amino)pyrimidin-4-yl)-2-(trifluoromethyl)benzyl)azetidine-1-carboxamide] | < 10 | < 500 |
| CC(C)n1cc(Nc2nccc(-c3ccc(CNC(=O)N4CC(OC(C)(C)C)C4)c(C(F)(F)F)c3)n2)cn1 [Example I-199, 3-(tert-butoxy)-N-(4-(2-((1-isopropyl-1H-pyrazol-4-yl)amino)pyrimidin-4-yl)-2-(trifluoromethyl)benzyl)azetidine-1-carboxamide] | < 10 | < 500 |
| CN1CCC(n2cc(Nc3nccc(-c4ccc(CNC(=O)N5CC(OC(C)(C)C)C5)c(C(F)(F)F)c4)n3)cn2)CC1 [Example I-200, 3-(tert-butoxy)-N-(4-(2-((1-(1-methylpiperidin-4-yl)-1H-pyrazol-4-yl)amino)pyrimidin-4-yl)-2-(trifluoromethyl)benzyl)azetidine-1-carboxamide] | < 10 | < 500 |
| CN1CC(n2cc(Nc3nccc(-c4ccc(CNC(=O)c5cnn(C(C)(C)C)c5)c(C(F)(F)F)c4)n3)cn2)C1 [Example I-201, 1-(tert-butyl)-N-(4-(2-((1-(1-methylazetidin-3-yl)-1H-pyrazol-4-yl)amino)pyrimidin-4-yl)-2-(trifluoromethyl)benzyl)-1H-pyrazole-4-carboxamide] | < 10 | < 500 |
| Cn1cc(Nc2nccc(-c3ccc(CNC(=O)c4cnn(C(C)(C)C)c4)c(C(F)(F)F)c3)n2)cn1 [Example I-202, 1-(tert-butyl)-N-(4-(2-((1-methyl-1H-pyrazol-4-yl)amino)pyrimidin-4-yl)-2-(trifluoromethyl)benzyl)-1H-pyrazole-4-carboxamide] | < 10 | < 500 |
| CCn1cc(Nc2nccc(-c3ccc(CNC(=O)N4CC(OC(C)(C)C)C4)c(C(F)(F)F)c3)n2)cn1 [Example I-203, 3-(tert-butoxy)-N-(4-(2-((1-ethyl-1H-pyrazol-4-yl)amino)pyrimidin-4-yl)-2-(trifluoromethyl)benzyl)azetidine-1-carboxamide] | < 10 | < 500 |
